Test results taken from ChEMBL document CHEMBL4261660, “Synthesis and biological evaluation of a trisaccharide repeating unit derivative of Streptococcus pneumoniae 19A capsular polysaccharide” (Bioorg Med Chem, 2018).

How the values were obtained:
Oryctolagus cuniculus [1] = organism: Oryctolagus cuniculus; assay: Inhibition of anti-19F rabbit polyclonal antibody binding to Streptococcus pneumoniae 19F capsular polysaccharide coated on to plates at 1 mg/ml after overnight incubation ar 4 to 8 degC by competitive ELISA
[2] = Inhibition of binding of anti-19A rabbit polyclonal antibody to Streptococcus pneumoniae 19A capsular polysaccharide coated on to plates after overnight incubation at 4 to 8 degC by competitive ELISA; set-up: species or system Oryctolagus cuniculus
[3] = Inhibition of anti-19F rabbit polyclonal antibody binding to Streptococcus pneumoniae 19F capsular polysaccharide coated on to plates after overnight incubation ar 4 to 8 degC by competitive ELISA; set-up: species or system Oryctolagus cuniculus
Oryctolagus cuniculus [4] = organism: Oryctolagus cuniculus; assay: Inhibition of binding of anti-19A rabbit polyclonal antibody to Streptococcus pneumoniae 19A capsular polysaccharide coated on to plates at 1 mg/ml after overnight incubation at 4 to 8 degC by competitive ELISA

With `CC(=O)N[C@@H]1[C@H](O[C@H]2[C@H](O)[C@@H](O)[C@@H](O[C@@H]3[C@@H](O)[C@H](C)O[C@@H](OCCCN)[C@@H]3O)O[C@@H]2CO)O[C@H](CO)[C@@H](O)[C@@H]1O.Cl` the inhibition (Oryctolagus cuniculus [1]) was 32%, the EC50 [2] was 1.3 ×10⁻³ mg/ml and the EC50 [3] was 2.7 ×10⁻² mg/ml. The inhibition (Oryctolagus cuniculus [4]) was 41%.
